Biological target: T1, hOX2R (Homo sapiens, UniProt O43614)
T1 construct: expressed in transfected cells; host or cells: CHO cells (G418 selection)
T1 sequence (O43614 1-444): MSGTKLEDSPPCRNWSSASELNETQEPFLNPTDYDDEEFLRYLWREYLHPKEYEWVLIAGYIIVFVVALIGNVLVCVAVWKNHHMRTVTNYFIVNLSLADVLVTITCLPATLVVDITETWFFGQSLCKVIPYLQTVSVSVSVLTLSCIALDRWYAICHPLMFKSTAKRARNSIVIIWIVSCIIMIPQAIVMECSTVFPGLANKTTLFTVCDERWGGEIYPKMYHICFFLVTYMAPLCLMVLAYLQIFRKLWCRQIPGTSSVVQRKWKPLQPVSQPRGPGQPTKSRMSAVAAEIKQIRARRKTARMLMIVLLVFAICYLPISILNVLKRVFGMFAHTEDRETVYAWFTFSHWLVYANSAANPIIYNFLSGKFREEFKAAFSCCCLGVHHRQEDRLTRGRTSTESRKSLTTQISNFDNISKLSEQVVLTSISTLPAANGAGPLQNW
Test: hOX2R IPone assay (orexin receptor agonism)
Assay type: cell-based
Details: IPone readout; for hOX2R_Ipone max %act: maximal activation; for EC50: orexin receptor agonist, read-out: hOX2R_IPone EC50

Row | hOX2R_Ipone max %act [%] | EC50 [nM] | Compound
1 | 97.2 | 868 | CCN1C(=O)N[C@H](C(F)(F)F)CCCCCOc2nc(cn3ccnc23)-c2cc(ncc2OC)[C@H]1C [Example 115, (12R,16S)-13-ethyl-8-methoxy-12-methyl-16-(trifluoromethyl)-12,13,16,17,18,19,20,21-octahydro-6,23-(azeno)-11,7-(metheno)imidazo[2,1-c][1,4,10,13,15]oxatetraazacyclohenicosin-14(15H)-one]
2 | 93.31 | 170 | CCN1C(=O)N[C@@H](CCC(F)(F)F)CCS(=O)(=O)CCOc2nc(cn3ncnc23)-c2cc(ncc2OC)[C@H]1C [Example 135, (3R,7S,E)-4-ethyl-25-methoxy-3-methyl-7-(3,3,3-trifluoropropyl)-13-oxa-10-thia-4,6-diaza-1(6,8)-[1,2,4]triazolo[1,5-a]pyrazina-2(4,2)-pyridinacyclotridecaphan-5-one 10,10-dioxide]
3 | 103.9 | 3.71 | CCN1C(=O)N[C@@H](CCC(F)(F)F)COCCCOc2nc(cn3cnnc23)-c2cc(ncc2OC)[C@H]1C [Example 173, (3R,7S,E)-4-ethyl-25-methoxy-3-methyl-7-(3,3,3trifluoropropyl)-9,13-dioxa-4,6-diaza-1(6,8)-[1,2,4]triazolo[4,3-a]pyrazina-2(4,2)-pyridinacyclotridecaphan-5-one]
4 | 101.7 | 0.724 | CCN1C(=O)NC(CCC(F)(F)F)CCOCCOc2cn3ncnc3c(n2)-c2ccnc(c2)C1C [Example 136, (3R,7S,E)-4-ethyl-3-methyl-7-(3,3,3-trifluoropropyl)-10,13-dioxa-4,6-diaza-1(6,8)-[1,2,4]triazolo[1,5-a]pyrazina-2(4,2)-pyridinacyclotridecaphan-5-one]
5 | 102.1 | 2.03 | CCN1C(=O)NC(COC(C)C)CCCCCOc2nc(cn3ccnc23)-c2cc(ncc2OC)[C@H]1C (stereo partly drawn) [Example 185, (3R,E)-4-ethyl-7-(isopropoxymethyl)-25-methoxy-3-methyl-13-oxa-4,6-diaza-1(6,8)-imidazo[1,2-a]pyrazina-2(4,2)-pyridinacyclotridecaphan-5-one]
6 | 99.9 | 39.2 | CCOCC1CCCCCOc2nc(cn3ccnc23)-c2cc(ncc2OC)[C@@H](C)N(CC)C(=O)N1 (single isomer, unassigned) [Example 62A]
7 | 100.3 | 4.71 | CCN1C(=O)N[C@@H](CCC(F)(F)F)CCCCCOc2nc(cn3ncnc23)-c2ccnc(c2)[C@H]1C [Example 142, (3R,7R,E)-4-ethyl-3-methyl-7-(3,3,3-trifluoropropyl)-13-oxa-4,6-diaza-1(6,8)-[1,2,4]triazolo[1,5-a]pyrazina-2(4,2)-pyridinacyclotridecaphan-5-one]
8 | 99.5 | 17.3 | CCN1C(=O)N[C@@H](CCC(F)(F)F)CCCCCOc2nc(cn3ccnc23)-c2cc(nc3ccoc23)C1C (single isomer, unassigned) [Example 74A]
9 | 104.8 | 5.9 | CCN1C(=O)N[C@@H](CCC(F)(F)F)CCCCCOc2nc(cc3cccnc23)-c2cc(ncc2OC)[C@H]1C [Example 162, (3R,7R)-4-ethyl-25-methoxy-3-methyl-7-(3,3,3-trifluoropropyl)-13-oxa-4,6-diaza-1(6,8)-naphthyridina-2(4,2)-pyridinacyclotridecaphan-5-one]
10 | 100.2 | 67.8 | CCN1C(=O)N[C@@H](CCC(F)(F)F)CCCCCOc2nc(cc3ccnn23)-c2cc(ncc2OC)C1C (single isomer, unassigned) [Example 88A]

Row | Compound | hOX2R_Ipone max %act [%] | EC50 [nM]
11 | CCN1C(=O)NCCN(C(C)C)CCOc2nc(cn3ccnc23)-c2cccc(c2)[C@H]1C [Example 3, (12R)-13-ethyl-12-methyl-18-(propan-2-yl)-12,13,15,16,17,18,19,20-octahydro-14H-6,22-(azeno)-11,7-(metheno)imidazo[1,2-r][1,4,7,9,18]oxatetraaza-cycloicosin-14-one] | 88.8 | 2500

Reference: US12686690B2, “Macrocyclic urea orexin receptor agonists” (Merck Sharp & Dohme LLC, priority 2020, dated 2026)
